According to US7960376B2, “Benzo-fused heterocycles” (priority 2007, dated 2011):

How the values were obtained:
[1] = target: human CB1 receptor (hCB1) (Homo sapiens, UniProt P21554); test: cAMP assay (LANCE TR-FRET) in CHO-K1 cells expressing hCB1; assay type: cell-based; settings: intracellular cAMP, NKH-477 prestimulated, + agonist, − inverse agonist
[2] = tested on: CFA-induced mechanical hyperalgesia; test: Anti-hyperalgesia in the Complete Freund's Adjuvant (CFA) model of inflammatory pain, Randall-Selitto paw pressure; assay type: in vivo, Male Sprague-Dawley rats; settings: rat, injured paw, Pre-CFA 175 ± 4 g, Post-CFA 100 ± 3 g, cut-off 260 g, mean ± SEM, p < 0.05 vs Post-CFA
[3] = target: human CB2 receptor (hCB2) (Homo sapiens, UniProt P34972); test: cell-based; assay type: cell-based; settings: intracellular cAMP, CHO-K1 cells, NKH-477 prestimulated; + agonist, − inverse agonist
Chain of human CB2 receptor (hCB2) (P34972 whole entry): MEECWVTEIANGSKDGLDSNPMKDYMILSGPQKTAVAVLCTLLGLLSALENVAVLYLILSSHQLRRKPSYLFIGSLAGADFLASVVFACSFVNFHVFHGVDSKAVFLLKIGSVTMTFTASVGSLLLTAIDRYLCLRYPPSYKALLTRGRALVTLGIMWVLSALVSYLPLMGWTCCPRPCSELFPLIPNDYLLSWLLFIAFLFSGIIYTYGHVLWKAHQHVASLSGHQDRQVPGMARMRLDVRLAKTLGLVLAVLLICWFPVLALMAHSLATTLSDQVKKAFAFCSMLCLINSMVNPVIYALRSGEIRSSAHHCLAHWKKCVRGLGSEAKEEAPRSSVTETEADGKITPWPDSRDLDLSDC

rat CB2 receptor (rCB2) = target: T1, rat CB2 receptor (rCB2) (Rattus norvegicus, UniProt Q9QZN9); test: cell-based; assay type: cell-based; settings: intracellular cAMP, CHO-K1 cells, NKH-477 prestimulated; + agonist, − inverse agonist
T1 sequence (Q9QZN9 1-360): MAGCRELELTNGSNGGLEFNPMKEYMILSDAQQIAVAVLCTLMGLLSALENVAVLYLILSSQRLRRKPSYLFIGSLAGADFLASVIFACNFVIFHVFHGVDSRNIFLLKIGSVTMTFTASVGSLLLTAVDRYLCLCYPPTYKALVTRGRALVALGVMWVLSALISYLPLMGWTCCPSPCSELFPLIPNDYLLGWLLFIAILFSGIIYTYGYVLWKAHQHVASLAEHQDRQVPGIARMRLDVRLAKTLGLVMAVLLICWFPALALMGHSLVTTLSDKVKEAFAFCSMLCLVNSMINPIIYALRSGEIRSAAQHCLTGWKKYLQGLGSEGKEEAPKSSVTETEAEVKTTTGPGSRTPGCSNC

Chain of human CB1 receptor (hCB1) (P21554 whole entry): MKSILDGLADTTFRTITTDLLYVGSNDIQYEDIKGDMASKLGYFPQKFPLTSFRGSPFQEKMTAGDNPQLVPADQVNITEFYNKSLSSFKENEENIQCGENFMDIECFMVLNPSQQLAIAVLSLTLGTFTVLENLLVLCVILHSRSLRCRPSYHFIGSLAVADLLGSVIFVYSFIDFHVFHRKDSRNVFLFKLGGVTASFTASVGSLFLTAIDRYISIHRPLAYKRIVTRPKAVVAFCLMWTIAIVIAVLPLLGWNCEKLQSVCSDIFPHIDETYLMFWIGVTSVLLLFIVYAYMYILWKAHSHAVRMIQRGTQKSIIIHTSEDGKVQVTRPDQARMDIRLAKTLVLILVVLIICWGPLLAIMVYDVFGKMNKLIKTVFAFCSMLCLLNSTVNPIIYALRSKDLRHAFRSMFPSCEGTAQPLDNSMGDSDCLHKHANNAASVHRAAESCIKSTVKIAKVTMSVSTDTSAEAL

In the case of `O=C(NC1CCCC1)c1ccc2c(c1)N(S(=O)(=O)c1ccc(F)cc1)CCS2` [Example 45, N-cyclopentyl-4-(4-fluorophenylsulfonyl)-3,4-dihydro-2H-benzo[b][1,4]thiazine-6-carboxamide], the “hCB1 EC50 range” value [1] is reported as “+D”, the “Test Threshold” value ([2]; 1 mg/paw intrapaw) is reported as 179 ± 19 g and the “hCB2 EC50 range” value [3] is reported as “+B”. For the same molecule, the “rCB2 EC50 range” value (rat CB2 receptor (rCB2)) was “+A”.

In the case of `CC1(C)CCN(S(=O)(=O)c2ccc(F)cc2)c2cc(C(=O)NC3CCCC3)ccc2S1` [Example 101, N-cyclopentyl-5-(4-fluorophenylsulfonyl)-2,2-dimethyl-2,3,4,5-tetrahydrobenzo[b][1,4] thiazepine-7-carboxamide], the “hCB1 EC50 range” value [1] is reported as “−E”, the “hCB2 EC50 range” value [3] is reported as “+E” and the “rCB2 EC50 range” value (rat CB2 receptor (rCB2)) is reported as “−C”.

`CNC(=O)[C@@H](NC(=O)c1ccc2c(c1)N(S(=O)(=O)c1ccc(F)cc1)CCC(C)(C)S2)C(C)(C)C` [Example 103, (S)-N-(3,3-dimethyl-1-(methylamino)-1-oxobutan-2-yl)-5-(4-fluorophenyl-sulfonyl)-2,2-dimethyl-2,3,4,5-tetrahydrobenz0-[b][1,4]thiazepine-7-carboxamide] was tested, and the “hCB1 EC50 range” value [1] was “−E”, the “hCB2 EC50 range” value [3] was “+D” and the “rCB2 EC50 range” value (rat CB2 receptor (rCB2)) was “+C”.

For `O=S(=O)(c1ccc(F)cc1)N1CCSc2ccc(-c3nnc(-c4ccccc4)o3)cc21` [Example 104, 2-(4-(4-fluorophenylsulfonyl)-3,4-dihydro-2H-benzo[b][1,4]thiazin-6-yl)-5-phenyl-1,3,4-oxadiazole], the “hCB1 EC50 range” value [1] was “+D”, the “hCB2 EC50 range” value [3] was “+C” and the “rCB2 EC50 range” value (rat CB2 receptor (rCB2)) was “+B”.

`O=S(=O)(c1ccc(C(F)(F)F)cc1)N1CCSc2ccc(-c3nnc(-c4ccccc4)o3)cc21` [Example 105, 2-phenyl-5-(4-(4-(trifluoromethyl)phenylsulfonyl)-3,4-dihydro-2H-benzo[b][1,4]thiazin-6-yl)-1,3,4-oxadiazole] was tested, and the “hCB1 EC50 range” value [1] was “+D”, the “hCB2 EC50 range” value [3] was “+C” and the “rCB2 EC50 range” value (rat CB2 receptor (rCB2)) was “+A”.

With `O=S(=O)(c1ccc(F)cc1)N1CCSc2ccc(-c3ncc(-c4ccccc4)[nH]3)cc21` [Example 108, 4-(4-fluorophenylsulfonyl)-6-(5-phenyl-1H-imidazol-2-yl)-3,4-dihydro-2H-benzo[b][1,4]thiazine] the “hCB1 EC50 range” value [1] was “+E”, the “hCB2 EC50 range” value [3] was “+C” and the “rCB2 EC50 range” value (rat CB2 receptor (rCB2)) was “+B”.

`O=S(=O)(c1ccc(C(F)(F)F)cc1)N1CCSc2ccc(-c3nc4ccccc4o3)cc21` [Example 109, 2-(4-(4-(trifluoromethyl)phenylsulfonyl)-3,4-dihydro-2H-benzo[b][1,4]thiazin-6-yl)benzo[d]oxazole] was tested, and the “hCB1 EC50 range” value [1] was “+D”, the “hCB2 EC50 range” value [3] was “+C” and the “rCB2 EC50 range” value (rat CB2 receptor (rCB2)) was “+B”.

For `Cc1c(C(=O)c2cccc3ccccc23)c2cccc3c2n1[C@H](CN1CCOCC1)CO3` [WIN 55212, 2, reference compound], the “Test Threshold” value ([2]; 0.1 mg/paw intrapaw) was 255 ± 5 g.
